Measured values from patent US20250179055A1, “Substituted 2-(pyrrolidine-3-yl)acetic acid derivative, preparation method and use thereof” (INNOVSTONE THERAPEUTICS LIMITED, priority 2023, published 2025).

Experiments:
[1] = Pharmacokinetic test in C57BL/6J female mice; type: in vivo; settings: mouse, plasma; for bioavailability: gavage 10 mg/kg vs intravenous 2 mg/kg
Description: C57BL/6J female mice were used as test animals, and the drug concentration in plasma of C57BL/6J female mice at different time points after intravenous and gavage administration was determined to study the pharmacokinetic characteristics of the compound in C57BL/6J female mice.
Drug formulation: a certain amount of compound was weighed and normal saline was added to prepare clear, colorless solutions of 0.4 mg/mL (IV) and 1 mg/mL (PO).
Test procedure: C57BL/6J female mice were fasted overnight before gavage administration, followed by non-fasted intravenous administration. The intravenous dose was 2 mg/kg, and the gavage dose was 10 mg/kg. Approximately 0.03 mL of blood was collected from the orbital venous plexus at 0.083 (IV), 0.25, 0.5, 1, 2, 4, 8 and 24 h after administration, respectively, placed in a centrifuge tube containing EDTA-K2, centrifuged at 3000 rpm/min at 2-8° C. for 10 min to obtain plasma, and stored at −80° C.
Determination of the content of the compound to be tested in plasma of C57BL/6J female mice at different blood collection time points: 10 μL of plasma of C57BL/6J female mice collected at each time point after administration of LY3473329 and the compound of this application was added with 200 μL of 500 mM trichloroacetic acid aqueous solution to precipitate protein, which contained 100 ng/mL internal standard, vortexed for 1 min, centrifuged at 14000 rpm for 7 min for samples treated with test tubes, and centrifuged at 4000 rpm for 10 min for samples treated with 96-well plates, and 190 μL of the supernatant was transferred to a 96-well plate, and 8 μL of the supernatant was injected for LC-MS/MS analysis. WO2023078333A1 Example 6:12 μL of plasma of C57BL/6J female mice collected at each time point after administration was added with 240 μL of methanol to precipitate protein, which contained 10 ng/mL internal standard, vortexed for 1 min, centrifuged at 14000 rpm for 7 min for samples treated with test tubes, and centrifuged at 4000 rpm for 10 min for samples treated with 96-well plates. 220 μL of the supernatant was transferred to a 96-well plate, and 10 μL of the supernatant was taken for LC-MS/MS analysis.
After plasma concentrations were determined by LC/MS/MS analysis method, pharmacokinetic parameters (e.g. Cmax, AUC, T1/2, etc.) were calculated using WinNonlin software and noncompartmental analysis.

[2] = molecular target: Lp(a) assembly in HepG2 cells overexpressing ApoA protein (Homo sapiens (Human), UniProt P08519); experiment: ELISA assay on screening Lp(a) assembly inhibition; type: cell-based; settings: HepG2 cells overexpressing ApoA protein, 24 h, ELISA of supernatant
Method in brief: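 HepG2 cells overexpressing ApoA treated with diluted compounds for 24 h at 37 °C, 5% CO2; EACA (10 μL of 1.5 M) added before harvesting supernatant. Secreted Lp(a) quantified by sandwich ELISA; IC50 from four-parameter Hill fit of % inhibition versus concentration.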

serum Lp(a) = experiment: Humanized mouse Lp(a) inhibition test; type: in vivo, humanized Lp(a) transgenic mouse; settings: blood 8 h after last dose, humanized Lp(a) mice
Description: The in vivo pharmacodynamics of the compounds in reducing Lp(a) was evaluated in a humanized Lp(a) transgenic mouse model. Lp(a) mice were obtained by crossing mice expressing humanized apoB-100 with mice expressing humanized apo(a) containing 16 Kringle repeats. Female mice aged 8-9 weeks were selected for the test. Housing conditions: standard light cycle (12 h light/12 h dark), temperature 20-25° C., humidity 40-70%, free access to water and normal diet. is One day before the test, mice were divided into vehicle control group and test article group (n=5/group) according to body weight and baseline plasma Lp(a) concentration. Mice were orally administered with vehicle (normal saline, 10 mL/kg) or test compound (prepared with normal saline to 3 or 0.5 mg/mL, each mouse received 10 mL/kg), once daily (9:00 am) for 3 consecutive days, and blood was collected to determine the change of serum Lp(a). Eight hours after the last dose, 10 μL of blood was collected from the tail vein and transferred to a 1.5 mL centrifuge tube containing 90 μL of normal saline, mixed well, and left to stand on ice for 30 min. The above samples were centrifuged at 4° C., 3000 rpm for 10 min, and the supernatant was collected and placed on ice. The Lp(a) concentration in the supernatant was measured by double-antibody sandwich ELISA using an anti-apo(a) capture antibody and an HRP-conjugated anti-ApoB detection antibody, with TMB for color development. The reaction was stopped with 1 N sulfuric acid, and the OD value was read at 450 nm on a Tecan microplate reader. Inhibition rate was calculated for each dosing group. Inhibition rate (%)=(vehicle control group Lp(a) concentration or self pre-dose Lp(a) concentration post-dose Lp(a) concentration)/vehicle control group Lp(a) concentration or self pre-dose Lp(a) concentration*100.

[3] = Safety assessment test in rats (14-day oral gavage); type: in vivo; settings: SD rats, 300 and 1000 mg/kg oral once daily for 14 days
Description: The safety of the compounds of the present invention was evaluated by oral gavage administration to SD rats as the test animals.
Test method: 50 SD rats (half males and half females) were randomly divided into vehicle control group and test article group according to their body weight. The vehicle saline or the compound of the present invention or LY3473329 (300 mg/kg, 1000 mg/kg) was administered orally once daily for 14 consecutive days.

[4] = intravenous administration, 2 mg/kg
[5] = po, gavage administration, 10 mg/kg
[6] = 5 mg/kg oral once daily for 3 days

Lp(a) assembly in HepG2 cells overexpressing ApoA protein, sequence (P08519 20-2040): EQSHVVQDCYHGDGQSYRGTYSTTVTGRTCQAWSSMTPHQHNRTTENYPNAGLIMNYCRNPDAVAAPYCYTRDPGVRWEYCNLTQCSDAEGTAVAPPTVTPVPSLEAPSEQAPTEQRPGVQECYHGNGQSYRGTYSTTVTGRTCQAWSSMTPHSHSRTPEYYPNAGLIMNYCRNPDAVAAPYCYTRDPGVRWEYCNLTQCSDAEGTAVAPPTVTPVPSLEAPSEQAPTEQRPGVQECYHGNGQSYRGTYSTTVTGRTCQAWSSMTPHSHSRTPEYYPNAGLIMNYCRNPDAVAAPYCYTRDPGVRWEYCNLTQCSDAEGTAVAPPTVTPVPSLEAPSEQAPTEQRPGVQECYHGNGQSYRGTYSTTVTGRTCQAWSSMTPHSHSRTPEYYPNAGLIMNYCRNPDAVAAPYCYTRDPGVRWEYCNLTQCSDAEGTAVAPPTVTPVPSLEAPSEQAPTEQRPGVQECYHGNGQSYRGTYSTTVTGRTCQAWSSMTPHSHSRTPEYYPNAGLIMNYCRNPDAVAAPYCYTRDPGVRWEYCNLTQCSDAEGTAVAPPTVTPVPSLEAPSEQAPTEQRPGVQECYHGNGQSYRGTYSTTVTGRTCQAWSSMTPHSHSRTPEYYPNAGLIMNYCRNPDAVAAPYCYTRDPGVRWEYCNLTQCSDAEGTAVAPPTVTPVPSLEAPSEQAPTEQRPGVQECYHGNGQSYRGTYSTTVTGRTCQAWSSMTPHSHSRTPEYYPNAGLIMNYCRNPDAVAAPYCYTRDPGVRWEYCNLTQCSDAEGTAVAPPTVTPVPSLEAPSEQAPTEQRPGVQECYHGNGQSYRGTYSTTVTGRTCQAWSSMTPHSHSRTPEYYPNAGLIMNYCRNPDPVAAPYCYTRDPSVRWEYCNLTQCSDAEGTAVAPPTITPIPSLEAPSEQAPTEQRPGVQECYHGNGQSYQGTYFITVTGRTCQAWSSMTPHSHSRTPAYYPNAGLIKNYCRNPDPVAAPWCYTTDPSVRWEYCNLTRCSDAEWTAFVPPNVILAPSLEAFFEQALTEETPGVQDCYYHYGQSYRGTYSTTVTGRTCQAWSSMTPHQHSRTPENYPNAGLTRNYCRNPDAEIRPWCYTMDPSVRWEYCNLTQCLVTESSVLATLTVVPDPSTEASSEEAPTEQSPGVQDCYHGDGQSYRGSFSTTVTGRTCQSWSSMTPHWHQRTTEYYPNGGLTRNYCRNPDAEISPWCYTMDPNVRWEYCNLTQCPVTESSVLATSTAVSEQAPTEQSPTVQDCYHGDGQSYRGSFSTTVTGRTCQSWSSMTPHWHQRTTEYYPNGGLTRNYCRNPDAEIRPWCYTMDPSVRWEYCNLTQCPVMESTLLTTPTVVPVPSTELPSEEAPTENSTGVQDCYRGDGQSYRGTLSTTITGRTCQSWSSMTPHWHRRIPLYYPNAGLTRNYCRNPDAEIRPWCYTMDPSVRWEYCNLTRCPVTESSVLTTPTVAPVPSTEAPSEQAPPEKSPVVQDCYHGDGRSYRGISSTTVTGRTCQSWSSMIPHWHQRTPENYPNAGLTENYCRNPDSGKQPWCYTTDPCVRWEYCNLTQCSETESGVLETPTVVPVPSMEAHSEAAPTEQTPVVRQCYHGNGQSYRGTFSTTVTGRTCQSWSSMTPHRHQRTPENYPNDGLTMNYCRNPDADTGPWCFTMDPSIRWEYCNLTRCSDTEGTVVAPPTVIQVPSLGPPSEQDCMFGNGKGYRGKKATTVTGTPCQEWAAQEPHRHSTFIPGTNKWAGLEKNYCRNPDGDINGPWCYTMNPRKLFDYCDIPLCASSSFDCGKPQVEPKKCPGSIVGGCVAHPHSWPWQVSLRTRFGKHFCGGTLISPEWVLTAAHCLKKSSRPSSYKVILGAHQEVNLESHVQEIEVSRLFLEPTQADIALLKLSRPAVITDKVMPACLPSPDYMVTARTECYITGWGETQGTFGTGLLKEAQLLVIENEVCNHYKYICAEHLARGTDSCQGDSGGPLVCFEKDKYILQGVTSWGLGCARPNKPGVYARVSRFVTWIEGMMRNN

Row | AUC [1, 4] [ng·h/mL] | half-life [1, 4] [h] | bioavailability ([1]; po) [%] | AUC [1, 5] [ng·h/mL] | Cmax [1, 5] [ng/mL] | half-life [1, 5] [h] | IC50 [2] [nM] | Compound | Lp(a) Inhibition Rate (serum Lp(a); [6]) [%] | Lp(a) Inhibition Rate (serum Lp(a); 30 mg/kg oral once daily for 3 days) [%] | compound-related changes in clinical observation, body weight, food consumption, hematology, blood biochemistry, urine, organ weight, histopathology [3]
1 | 33400 | 35.5 | 13.5 | 21000 | 874 | 28.9 | 1.68 | O=C(O)[C@@H](Cc1cccc(CC(=O)N(CCCOc2cccc(C[C@H](C(=O)O)[C@H]3CCNC3)c2)Cc2cccc(C[C@H](C(=O)O)[C@H]3CCNC3)c2)c1)[C@H]1CCNC1 [Compound 159, (S)-3-(3-(2-((3-((S)-2-carboxy-2-((R)-pyrrolidin-3-yl)ethyl)benzyl)(3-(3-((S)-2-carboxy-2-((R)-pyrrolidin-3-yl)ethyl)phenoxy)propyl)amino)-2-oxoethyl)phenyl)-2-((R)-pyrrolidin-3-yl)propanoic acid] | 84 | – | –
2 | 19200 | 12.1 | 15.9 | 23500 | 816 | 28.8 | 1.37 | O=C(O)[C@@H](Cc1cccc(COCCN(Cc2cccc(C[C@H](C(=O)O)[C@H]3CCNC3)c2)C(=O)Cc2cccc(C[C@H](C(=O)O)[C@H]3CCNC3)c2)c1)[C@H]1CCNC1 [Compound 160, (S)-3-(3-(2-((3-((S)-2-carboxy-2-((R)-pyrrolidin-3-yl)ethyl)benzyl)(2-((3-((S)-2-carboxy-2-((R)-pyrrolidin-3-yl)ethyl)benzyl)oxy)ethyl)amino)-2-oxoethyl)phenyl)-2-((R)-pyrrolidin-3-yl)propanoic acid] | 83 | – | –
3 | – | – | – | – | – | – | 1.89 | O=C(O)[C@@H](Cc1cccc(CCN(CCOCc2cccc(C[C@H](C(=O)O)[C@H]3CCNC3)c2)C(=O)Cc2cccc(C[C@H](C(=O)O)[C@H]3CCNC3)c2)c1)[C@H]1CCNC1 [Compound 161, (S)-3-(3-(2-((2-((3-((S)-2-carboxy-2-((R)-pyrrolidin-3-yl)ethyl)benzyl)oxy)ethyl)(3-((S)-2-carboxy-2-((R)-pyrrolidin-3-yl)ethyl)phenethyl)amino)-2-oxoethyl)phenyl)-2-((R)-pyrrolidin-3-yl)propanoic acid] | 83 | – | –
4 | – | – | – | – | – | – | 1.02 | O=C(O)[C@@H](Cc1cccc(CC(=O)N(CCOc2cccc(C[C@H](C(=O)O)[C@H]3CCNC3)c2)CCOc2cccc(C[C@H](C(=O)O)[C@H]3CCNC3)c2)c1)[C@H]1CCNC1 [Compound 111, (2S,2′S)-3,3′-(((((2-(3-((S)-2-carboxy-2-((R)-pyrrolidin-3-yl)ethyl)phenyl)acetyl)azanediyl)bis(ethane-2,1-diyl))bis(oxy))bis(3,1-phenylene))bis(2-((R)-pyrrolidin-3-yl)propanoic acid)] | 92 | – | –
5 | 22900 | 23.3 | 13.9 | 12400 | 919 | 11.4 | 0.58 | O=C(O)[C@@H](Cc1cccc(CC(=O)N(CCOc2cccc(C[C@H](C(=O)O)[C@H]3CCNC3)c2)Cc2cccc(C[C@H](C(=O)O)[C@H]3CCNC3)c2)c1)[C@H]1CCNC1 [Compound 96, (S)-3-(3-(2-((3-((S)-2-carboxy-2-((R)-pyrrolidin-3-yl)ethyl)benzyl)(2-(3-((S)-2-carboxy-2-((R)-pyrrolidin-3-yl)ethyl)phenoxy)ethyl)amino)-2-oxoethyl)phenyl)-2-((R)-pyrrolidin-3-yl)propanoic acid] | 91 | 96 | –
6 | – | – | – | – | – | – | 1.26 | O=C(O)[C@@H](Cc1cccc(CC(=O)N(CCOc2cccc(C[C@H](C(=O)O)[C@H]3CCNC3)c2)Cc2cc(C[C@H](C(=O)O)[C@H]3CCNC3)cs2)c1)[C@H]1CCNC1 [Compound 177, (S)-3-(3-(2-((2-(3-((S)-2-carboxy-2-((R)-pyrrolidin-3-yl)ethyl)phenoxy)ethyl)((4-((S)-2-carboxy-2-((R)-pyrrolidin-3-yl)ethyl)thiophen-2-yl)methyl)amino)-2-oxoethyl)phenyl)-2-((R)-pyrrolidin-3-yl)propanoic acid] | 90 | – | –
7 | 8820 | 9.8 | 10.1 | 4460 | 629 | 7.4 | – | O=C(O)[C@@H](Cc1cccc(CN(Cc2cccc(C[C@H](C(=O)O)[C@H]3CCNC3)c2)Cc2cccc(C[C@H](C(=O)O)[C@H]3CCNC3)c2)c1)[C@H]1CCNC1 [LY3473329, reference compound] | – | – | no changes
8 | – | – | – | – | – | – | 1.12 | O=C(O)[C@@H](Cc1cccc(CCN(CCOc2cccc(C[C@H](C(=O)O)[C@H]3CCNC3)c2)C(=O)Cc2cccc(C[C@H](C(=O)O)[C@H]3CCNC3)c2)c1)[C@H]1CCNC1 [Compound 100, (S)-3-(3-(2-((3-((S)-2-carboxy-2-((R)-pyrrolidin-3-yl)ethyl)phenethyl)(2-(3-((S)-2-carboxy-2-((R)-pyrrolidin-3-yl)ethyl)phenoxy)ethyl)amino)-2-oxoethyl)phenyl)-2-((R)-pyrrolidin-3-yl)propanoic acid] | 86 | – | –

Row | Compound | AUC [1, 4] [ng·h/mL] | half-life [1, 4] [h] | bioavailability ([1]; po) [%] | AUC [1, 5] [ng·h/mL] | Cmax [1, 5] [ng/mL] | half-life [1, 5] [h] | IC50 [2] [nM] | Lp(a) Inhibition Rate (serum Lp(a); [6]) [%] | Lp(a) Inhibition Rate (serum Lp(a); 30 mg/kg oral once daily for 3 days) [%] | compound-related changes in clinical observation, body weight, food consumption, hematology, blood biochemistry, urine, organ weight, histopathology [3]
9 | O=C(O)[C@@H](Cc1cccc(CN(CCOc2cccc(C[C@H](C(=O)O)[C@H]3CCNC3)c2)C(=O)Nc2cccc(C[C@H](C(=O)O)[C@H]3CCNC3)c2)c1)[C@H]1CCNC1 [Compound 131, (S)-3-(3-(3-(3-((S)-2-carboxy-2-((R)-pyrrolidin-3-yl)ethyl)benzyl)-3-(2-(3-((S)-2-carboxy-2-((R)-pyrrolidin-3-yl)ethyl)phenoxy)ethyl)ureido)phenyl)-2-((R)-pyrrolidin-3-yl)propanoic acid] | 31300 | 33.7 | 13.2 | 14300 | 893 | 16 | 1.19 | 81 | – | –
10 | O=C(O)[C@@H](Cc1cc(F)cc(CC(=O)N(CCOc2cc(F)cc(C[C@H](C(=O)O)[C@H]3CCNC3)c2)Cc2cc(F)cc(C[C@H](C(=O)O)[C@H]3CCNC3)c2)c1)[C@H]1CCNC1 [Compound 152, (S)-3-(3-(2-((3-((S)-2-carboxy-2-((R)-pyrrolidin-3-yl)ethyl)-5-fluorobenzyl)(2-(3-((S)-2-carboxy-2-((R)-pyrrolidin-3-yl)ethyl)-5-fluorophenoxy)ethyl)amino)-2-oxoethyl)-5-fluorophenyl)-2-((R)-pyrrolidin-3-yl)propanoic acid] | – | – | – | – | – | – | 1.26 | 90 | – | –
